Literature values, collected in patent US8772507B2, “Imidazole-benzamide anti-cancer agents” (Cytokinetics, Inc., priority 2004, dated 2014).
Where two headings read alike, the source gives them in different places.

System: A549 cells

GI50	GI50 (no unit printed at this place)	Compound
1000 nM	1000 nM	O=c1[nH]cc(F)c(=O)[nH]1 [5-fluorouracil]
63 nM	–	COc1cccc2c1C(=O)c1c(O)c3c(c(O)c1C2=O)C[C@@](O)(C(=O)CO)C[C@@H]3O[C@H]1C[C@H](N)[C@H](O)[C@H](C)O1 [doxorubicin]
500000 nM	–	NC(=O)NO [hydroxyurea]
4 nM	–	CC(=O)O[C@H]1C(=O)[C@@]2(C)[C@H]([C@H](OC(=O)c3ccccc3)[C@]3(O)C[C@H](OC(=O)[C@H](O)[C@@H](NC(=O)c4ccccc4)c4ccccc4)C(C)=C1C3(C)C)[C@]1(OC(C)=O)CO[C@@H]1C[C@@H]2O [paclitaxel]
